Reference: patent US7083799B1, “No-synthase inhibitors” (L'Oreal, priority 1995, dated 2006)
Values belong to the molecule of their own block, whether it stands above or below them.

Columns and labels:
[1] = tested on: mouse ear oedema induced by 0.01% 2-(5,6,7,8-tetrahydro-5,5,8,8-tetramethyl-2-naphthyl)-6-benzo[b]thiophenecarboxylic acid; assay: mouse ear oedema test (ear thickness) induced by topical application of an irritant retinoid; type: in vivo, mouse (Balb/C); conditions: curative
Method: This increase in the thickness of the mouse ear appears to be due to an increase in the thickness of the epidermis and to the appearance of a dermal oedema. This response can therefore be easily measured with the aid of an apparatus, such as the oditest.
(§1) 5 (=group 2) of the 10 mice thus treated are made to ingest orally N^G-nitro-L-arginine methyl ester in drinking water from t=0 and once per day for 11 days (N^G-nitro-L-arginine methyl ester concentration of 1 mg/ml, that is to say 170±40 mg/kg per day).
[…] The 5 mice which were not treated with […] constitute group 1.

[2] = tested on: mouse ear oedema induced by 0.01% 2-(5,6,7,8-tetrahydro-5,5,8,8-tetramethyl-2-naphthyl)-6-benzo[b]thiophenecarboxylic acid; assay: as above; type: in vivo, mouse (Balb/C)
mouse ear = conditions: in vivo
Method: Next, there is topically applied to the ear of these 5 mice previously treated with N^G,N^G-dimethylarginine (group A) and to the ear of 5 untreated mice (group B), at time t=0, 20 μl of an acetone solution comprising 0.01% by weight of 2-(5,6,7,8-tetrahydro-5,5,8,8-tetramethyl-2-naphthyl)-6-benzo[b]thiophenecarboxylic acid. The oedematous response is quantified by measurement of the thickness of the ear.

[3] = observation of toxicity and weight change in mice given the inhibitor orally; type: in vivo, mouse (Balb/C); conditions: oral in drinking water 1 mg/ml (170±40 mg/kg per day), once per day for 11 days
Method: as §1

[4] = 1% by weight, topical from 6 hours after the irritant, once per day for 5 days
[5] = gel 1% by weight, topical once per day for 4 days before the irritant, preventive, group A vs group B
[6] = 5%, topical from 6 hours after the irritant, once per day for 5 days, curative

Compound: CNC(=N)NCCC[C@H](N)C(=O)O [L-NMMA, N^G-monomethyl-L-arginine]
inhibition of the ear oedema [1, 4]: 28%
reduction of the area under the curve of the response induced by the irritant product (ear thickness vs days) [1, 4]: 51%
increase in the thickness of the mouse ear (maximum of group 1 without inhibitor = 100%) ([1]; gel 1% by weight, topical from 6 hours after the irritant, once per day for 5 days, after 5 days): 72%

increase in the thickness of the ear by the inhibitor gel alone (mouse ear): No increase
Compound: CN(C)C(N)=NCCC[C@H](N)C(=O)O [N^G,N^G-dimethylarginine]
reduction of the amplitude of the response induced by the irritant product [2, 5]: 24%
reduction of the area under the curve of the response induced by the irritant product (ear thickness vs days) [2, 5]: 50%

Compound: COC(=O)[C@@H](N)CCCNC(=N)N[N+](=O)[O-] [N^G-nitro-L-arginine methyl ester, methyl ester of N^G-nitro-L-arginine]
increase in the thickness of the mouse ear (maximum of group 1 without inhibitor = 100%) ([1]; oral in drinking water 1 mg/ml (170±40 mg/kg per day) from t=0, once per day, after 5 days of treatment): 70%
inhibition of the ear oedema ([1]; oral in drinking water 1 mg/ml (170±40 mg/kg per day) from t=0, after 5 days): 30%
change in weight [3]: not modified
sign of toxicity [3]: no sign of toxicity

Compound: CN=C(NC)NCCC[C@H](N)C(=O)O [SDMA, N^G,N^G-dimethyl-L-arginine, reference compound]
inhibition of the ear oedema [1, 4]: 7%
reduction of the area under the curve of the response induced by the irritant product (ear thickness vs days) [1, 4]: 27%

Compound: C[N+](C)(C)CC(=O)O [betaine, reference compound]
inhibition of the ear oedema [1, 4]: 9%
reduction of the area under the curve of the response induced by the irritant product (ear thickness vs days) [1, 4]: 24%
inhibition of the ear oedema [2, 6]: 16%
reduction of the area under the curve of the response induced by the irritant product (ear thickness vs days) [2, 6]: 13%
